Columns and labels:
physchem = assay type: physicochemical; conditions: water, drug alone, read-out: soluble in water
[1] = Comparative water solubility of precipitates (Example 4); assay type: physicochemical; conditions: 1 mg./ml. of drug

Structure (SMILES): CCCCCCCCCCCCCCCCNc1ccc(C(=O)[O-])cc1.[Na+]
- solubility (physchem): 1 µg/mL
- % p-Hexadecylaminobenzoic acid Sodium Salt in Solution, After 1 minute ([1]; 1 minute): 4%
- % p-Hexadecylaminobenzoic acid Sodium Salt in Solution, After 30 minutes ([1]; 30 minutes): 2%

From patent US4311694A, “Amorphous coprecipitates of 4-(monoalkylamino) benzoic acid and derivatives and certain water-soluble materials” (priority 1979, dated 1982)
